{
  "source": "patent US8669257B2",
  "about": "“Phenazine derivatives and uses thereof as potassium channel modulators” (The Johns Hopkins University, priority 2007, dated 2014)",
  "key": {"[1]": {"tested_on": "IL-2 production in Jurkat T-cells", "experiment": "IL-2 secreted from stimulated Jurkat T-cells (ELISA)", "format": "cell-based", "settings": "Homo sapiens; PMA/thapsigargin-stimulated Jurkat T-cells, FIG. 1B, n=6", "procedure": "Jurkat E6.1 T-cells (1×10^5 in 180 μl) were seeded into 96-well plates. Cells in each well were treated with different concentrations of clofazimine for 1 h before 1 μM ionomycin and 40 nM PMA were added. The incubation was continued for 2 days. The plates were centrifuged at 1,200×g for 5 min, and the supernatant from each well was collected followed by ELISA detection of IL-2. The primary antibody, biotinylated secondary antibody and HRP conjugated avidin were purchase from BD/Pharmingen."}, "[2]": {"tested_on": "human mixed lymphocyte reaction", "experiment": "Human mixed lymphocyte reaction (MLR), [3H]-thymidine incorporation", "format": "cell-based", "settings": "FIG. 1B, n=6", "procedure": "The human MLR was established by coculturing normal human PBMN responder lymphocytes (0.5×10^6) with an equal number of miomycin C-treated stimulator cells in RPMI1640 complete medium. The cells were incubated with varying doses of clofazimine at 37° C. in a humidified atmosphere of 5% CO2 for 4 days. Then 1 μCi of [^3H]-thymidine was added into culture and incubation was continued for 6 h. The cells were harvested and [^3H]-thymidine incorporated into cells was measured in a liquid scintillation counter."}, "[3]": {"tested_on": "endogenous NFATc2 dephosphorylation", "experiment": "Dephosphorylation of endogenous NFATc2 in Jurkat T-cells (Western blot)", "format": "cell-based, human", "settings": "ionomycin treatment", "procedure": "Jurkat T-cells were pretreated with indicated compounds for 1 h before 3 μM (final concentration) ionomycin was added. Cells were harvested after 30 min and lysed in a lysis buffer [40 mM Tris (pH 7.8), 1% NP-40, 10 mM EDTA, 60 mM […] and common protease inhibitors] by sonication. NFATc2 was resolved by 8% SDS-PAGE followed by Western blot analysis using anti-NFAT antibodies (Santa-cruz Sc-7296, 1:100 dilution)."}, "[4]": {"target": "T1, calcineurin-NFATc2 interaction (Homo sapiens, UniProt P16298+Q13469, H160N)", "T1 construct": "calcineurinA (1-400, H160N) and NFATc2 (1-415) in Jurkat T-cells; expressed in transfected cells; host or cells: Jurkat T-cells", "T1 sequence (Q13469 1-415)": "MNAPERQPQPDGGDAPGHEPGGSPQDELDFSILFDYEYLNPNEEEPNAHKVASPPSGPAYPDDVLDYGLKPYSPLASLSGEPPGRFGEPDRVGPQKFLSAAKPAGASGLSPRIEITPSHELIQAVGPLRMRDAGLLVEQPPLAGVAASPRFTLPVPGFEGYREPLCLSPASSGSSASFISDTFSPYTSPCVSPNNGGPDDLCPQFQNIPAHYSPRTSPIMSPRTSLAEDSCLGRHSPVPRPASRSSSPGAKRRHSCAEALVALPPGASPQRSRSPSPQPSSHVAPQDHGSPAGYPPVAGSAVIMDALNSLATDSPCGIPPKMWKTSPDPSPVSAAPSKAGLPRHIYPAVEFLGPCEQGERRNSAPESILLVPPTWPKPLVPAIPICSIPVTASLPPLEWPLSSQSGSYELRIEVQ", "experiment": "Mammalian two-hybrid assay of calcineurin and NFATc2 in Jurkat T-cells", "format": "cell-based"}, "[5]": {"tested_on": "CRAC channel (CRACM1, CRACM2, CRACM3 with STIM1)", "experiment": "Patch-clamp of reconstituted CRAC current in HEK293 cells", "format": "cell-based", "settings": "CRACM1, CRACM2 or CRACM3 with STIM1 in HEK293 cells", "procedure": "(§1) Patch pipettes, pulled from glass capillaries (inner diameter 1.5 mm, Kimble products) with a horizontal puller (Sutter instruments, Modell P-97), were fire-polished, and had resistances between 2 and 4 MOhm. Patch-clamp experiments were performed in the tight-seal whole-cell configuration at room temperature (22-24° C.). High-resolution current recordings were acquired by a computer-based patch-clamp amplifier system (EPC-9, HEKA). Immediately following establishment of the whole-cell configuration, every two seconds voltage ramps of 50 ms duration spanning the voltage range of −100 to +100 mV for Jurkat T-cells and −150 to +150 mV for HEK293 were delivered from a holding potential (Vh) of −70 mV for Jurkats and 0 mV for HEK293 cells over a period of 300-600 s. […] Capacitive currents and series resistance were determined and corrected before each voltage ramp using the automatic capacitance compensation of the EPC-9. […] Kv1.3 currents in Jurkat T-cells were measured at +80 mV. Heterologously expressed Kv1.1, Kv1.2, Kv1.3, Kv1.5 and Kv3.1 were assessed at +80 mV except in Figure S7, where currents were additionally measured at the more physiological voltage of 0 mV. CRAC currents in HEK293 cells were assessed at −80 mV. […]"}, "Kv1.3": {"target": "T2, Kv1.3 (Homo sapiens, UniProt P22001)", "T2 construct": "endogenous in cells; host or cells: Jurkat T-cells", "T2 sequence (P22001 whole entry)": "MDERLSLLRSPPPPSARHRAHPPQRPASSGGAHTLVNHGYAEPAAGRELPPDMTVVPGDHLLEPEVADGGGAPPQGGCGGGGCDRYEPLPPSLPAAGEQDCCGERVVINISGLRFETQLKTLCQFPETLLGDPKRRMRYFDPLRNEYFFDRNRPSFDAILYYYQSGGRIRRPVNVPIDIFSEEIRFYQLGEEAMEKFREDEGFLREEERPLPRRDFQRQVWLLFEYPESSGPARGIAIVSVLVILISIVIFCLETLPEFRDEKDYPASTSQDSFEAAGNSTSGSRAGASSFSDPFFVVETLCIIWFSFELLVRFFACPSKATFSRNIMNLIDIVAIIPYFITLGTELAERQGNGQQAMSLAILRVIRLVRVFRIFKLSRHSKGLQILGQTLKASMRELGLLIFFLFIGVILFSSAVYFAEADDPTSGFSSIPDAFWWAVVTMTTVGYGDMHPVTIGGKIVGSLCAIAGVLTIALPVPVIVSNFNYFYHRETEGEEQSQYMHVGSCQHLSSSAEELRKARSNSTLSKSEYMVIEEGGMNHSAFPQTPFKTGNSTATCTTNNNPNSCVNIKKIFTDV", "experiment": "Patch-clamp of Kv1.3 currents in Jurkat T-cells", "format": "cell-based", "procedure": "as §1"}, "mouse Kv1.1": {"target": "T3, mouse Kv1.1 (Mus musculus, UniProt P16388)", "T3 construct": "expressed in transfected cells; host or cells: L929 cells", "T3 sequence (P16388 whole entry)": "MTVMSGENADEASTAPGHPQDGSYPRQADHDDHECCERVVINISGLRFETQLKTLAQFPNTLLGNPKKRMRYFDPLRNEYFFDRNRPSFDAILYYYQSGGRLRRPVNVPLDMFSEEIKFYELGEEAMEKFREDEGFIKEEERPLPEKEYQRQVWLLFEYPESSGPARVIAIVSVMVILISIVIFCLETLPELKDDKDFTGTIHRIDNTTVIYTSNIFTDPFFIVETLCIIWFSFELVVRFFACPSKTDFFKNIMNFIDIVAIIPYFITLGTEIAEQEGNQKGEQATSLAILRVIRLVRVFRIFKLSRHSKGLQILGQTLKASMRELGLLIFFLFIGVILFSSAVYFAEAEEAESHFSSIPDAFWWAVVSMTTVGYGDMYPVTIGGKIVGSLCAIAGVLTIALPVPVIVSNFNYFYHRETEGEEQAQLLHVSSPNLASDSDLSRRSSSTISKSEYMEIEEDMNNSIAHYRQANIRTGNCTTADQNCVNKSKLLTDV", "experiment": "Patch-clamp of mouse Kv1.1 stably expressed in L929 cells", "format": "cell-based", "procedure": "as §1"}, "murine skin transplant": {"tested_on": "murine skin transplant", "experiment": "Mouse skin transplantation with adoptive transfer of murine cells (parallel experiment)", "format": "in vivo", "settings": "murine skin and total murine T-cells", "excerpt": "FIG. 5. […] (A) Representative skin grafts at different days post-transplantation. Human foreskin was transplanted onto Pfp/Rag2−/− mice. 1.0×10^8 human peripheral blood lymphocytes (PBL) were adoptively transferred into each animal at Day 7 post-transplantation. Administration of clofazimine or carrier control (olive oil) was also initiated at Day 7. * Days after skin transplantation/cell transfer. (B) Effect of clofazimine on the mean survival time of transplanted human (n=5) and mouse (n=4) skin grafts. The mouse skin transplantation was performed using Balb/c mice as skin donors, B6 Rag1−/− mice as recipients and PBL from B6 for adoptive transfer."}, "mouse primary T-cells": {"tested_on": "mouse primary T-cells", "experiment": "IL-2 production from anti-CD3/anti-CD28-stimulated mouse primary T-cells", "format": "cell-based", "settings": "n=3"}, "[6]": {"tested_on": "mouse mixed lymphocyte reaction", "experiment": "Murine mixed lymphocyte reaction", "format": "cell-based", "settings": "n=3"}},
  "note": "“Also recorded” adds a separate entry of the source. Like-named read-outs stand apart in the source and are kept apart here.",
  "data": [
    {"smiles": "CC(C)/N=c1\\cc2n(-c3ccc(Cl)cc3)c3ccccc3nc-2cc1Nc1ccc(Cl)cc1", "note": "[clofazimine, Clofazimine]", "values": [
      {"measurement": "IC50", "setting": "[1]", "result": "1100 ± 260", "unit": "nM"},
      {"measurement": "IC50", "setting": "[2]", "result": "900 ± 170", "unit": "nM"},
      {"measurement": "effect on dephosphorylation of endogenous NFATc2", "setting": "[3]", "result": "inhibited ionomycin-induced dephosphorylation of NFATc2 in a dose-dependent manner"},
      {"measurement": "effect on dephosphorylation of endogenous NFATc2", "setting": "[3]; listed as Clofazimine", "result": "inhibits dephosphorylation"},
      {"measurement": "effect on calcium-dependent NFAT-calcineurin interaction", "setting": "[4]", "result": "inhibited the calcium-dependent NFAT-calcineurin interaction in a dose-dependent manner"},
      {"measurement": "effect on calcium-dependent NFAT-calcineurin interaction", "setting": "[4]; listed as Clofazimine", "result": "inhibits the calcium-dependent enhancement"},
      {"measurement": "effect on reconstituted CRAC current", "setting": "[5]", "result": "no effects"},
      {"measurement": "effect on reconstituted CRAC current", "setting": "[5]; listed as Clofazimine", "result": "without affecting"},
      {"measurement": "Hill coefficient, Kv1.3 current", "setting": "Kv1.3", "result": 0.75},
      {"measurement": "IC50", "setting": "Kv1.3; current at +80 mV, inhibition at 120 s, read-out: IC50, Kv1.3 potassium current", "result": 300, "unit": "nM"},
      {"measurement": "block of current, mouse Kv1.1", "setting": "mouse Kv1.1; 10 μM", "result": "less than 50%"},
      {"measurement": "IC50", "setting": "mouse Kv1.1; inferred from block at 10 μM", "result": "> 10000", "unit": "nM"},
      {"measurement": "effect on survival of murine skin transplant", "setting": "murine skin transplant", "result": "no effect on the survival"},
      {"measurement": "inhibition of IL-2 production in primary mouse T-cells", "setting": "mouse primary T-cells", "result": "failed to observe a dose-dependent inhibition"},
      {"measurement": "effect on murine mixed lymphocyte reaction", "setting": "[6]", "result": "failed to observe a dose-dependent inhibition; also recorded: Biphasic effects"}
    ]}
  ]
}
